Each structure is given as a SMILES string. Activity calls are given as the source filed them.

A short description of test [1]: decrease of insulin promoter-GFP reporter – imaging, high-content screening, mouse beta cells (AID 1628). Particulars: MIN6. It counts as functional.
Test [2] is described as follows: MIN6 cell viability loss – mouse insulinoma, cytotoxicity control, dose response (AID 2122).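 Further: confirmatory high-throughput counterscreen run to flag cytotoxic compounds.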 It counts as functional.
Test [3] addresses T1, Endoribonuclease toxin MazF (Escherichia coli K-12, UniProt P0AE70). As to the kind of experiment: activation of MazEF endoribonuclease cleavage – biochemical, fluorescence, single-stranded RNA substrate, uHTS hits, dose response (AID 588481). It counts as functional.
Test [4] deals with T1, Endoribonuclease toxin MazF. As to the kind of experiment: substrate-only fluorescence increase artefacts – biochemical, single-stranded RNase substrate, counter-screen for MazEF activator project, dose response (AID 588502). It counts as functional. In general terms: Counterscreens check selectivity or assay interference.
For test [5], the target named is Tyrosine-protein phosphatase non-receptor type 7 (Homo sapiens, UniProt P35236). It counts as functional.
Tyrosine-protein phosphatase non-receptor type 7, sequence (P35236 whole entry): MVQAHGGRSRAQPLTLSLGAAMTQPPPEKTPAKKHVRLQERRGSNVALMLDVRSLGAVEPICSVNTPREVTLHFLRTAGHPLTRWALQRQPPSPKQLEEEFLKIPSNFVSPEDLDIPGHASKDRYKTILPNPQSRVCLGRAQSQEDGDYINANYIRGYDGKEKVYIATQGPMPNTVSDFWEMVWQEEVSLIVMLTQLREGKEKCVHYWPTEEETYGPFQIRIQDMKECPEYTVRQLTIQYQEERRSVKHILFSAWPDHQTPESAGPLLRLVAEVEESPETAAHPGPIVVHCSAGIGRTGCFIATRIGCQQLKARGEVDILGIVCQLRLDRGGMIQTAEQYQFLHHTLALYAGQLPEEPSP
For test [6], the target named is Glyceraldehyde-3-phosphate dehydrogenase (Homo sapiens, UniProt P04406).
Glyceraldehyde-3-phosphate dehydrogenase, sequence (P04406 whole entry): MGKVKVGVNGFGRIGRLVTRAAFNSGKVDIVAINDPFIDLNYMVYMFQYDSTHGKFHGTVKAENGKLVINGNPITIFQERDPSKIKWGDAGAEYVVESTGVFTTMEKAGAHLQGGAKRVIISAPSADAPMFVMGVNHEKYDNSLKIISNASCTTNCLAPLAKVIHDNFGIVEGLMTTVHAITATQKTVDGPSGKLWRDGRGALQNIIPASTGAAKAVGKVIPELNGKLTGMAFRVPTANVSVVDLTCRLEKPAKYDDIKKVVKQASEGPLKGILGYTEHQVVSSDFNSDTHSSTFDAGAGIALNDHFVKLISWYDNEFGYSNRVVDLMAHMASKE
Test [7] addresses T2, Dual specificity protein phosphatase 6 (Rattus norvegicus, UniProt Q64346).
T2 sequence (Q64346 whole entry): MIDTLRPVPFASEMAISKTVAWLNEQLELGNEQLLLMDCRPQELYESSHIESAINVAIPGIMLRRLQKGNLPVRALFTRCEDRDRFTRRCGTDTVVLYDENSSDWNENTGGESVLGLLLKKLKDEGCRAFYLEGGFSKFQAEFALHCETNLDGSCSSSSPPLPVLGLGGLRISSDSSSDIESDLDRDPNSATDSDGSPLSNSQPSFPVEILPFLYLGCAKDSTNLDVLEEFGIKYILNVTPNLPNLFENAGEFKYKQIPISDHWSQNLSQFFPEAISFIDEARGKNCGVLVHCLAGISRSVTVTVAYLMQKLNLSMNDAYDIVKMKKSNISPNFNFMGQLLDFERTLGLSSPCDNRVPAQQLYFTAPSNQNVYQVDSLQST

Test [8] concerns the target T2, Dual specificity protein phosphatase 6. It counts as functional.
The test system of a further test is Jurkat. As to the kind of experiment: blockers of NF-kB activation in T cells – Jurkat, luciferase reporter, luminescence, B- and T-cell, dose response (AID 489004).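 Further: NF-kB luciferase reporter Jurkat cells stimulated with PMA plus ionomycin.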 It counts as functional, cell-based. Particulars: Homo sapiens.
Test [9] can be described thus: HEK-293T viability loss, compound-treated – cell-based, uHTS hits, cytotoxicity control for B/T-cell NF-kB inhibitor project, dose response (AID 489019).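 Further: IC50 reflects cytotoxicity as loss of cell viability.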 It counts as functional.
The next test has as its system INS1. As to the kind of experiment: INS-1E survival protection against cytokine death – cell-based, luminescence, retest, dose response (AID 449756).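 Further: cell death triggered by IL-1 beta plus TNF-alpha plus IFN-gamma mixture; protective hits raise ATP signal compared with cytokine alone wells.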 It counts as functional. Particulars: Rattus norvegicus.
In test [10] the target is Nuclear receptor ROR-gamma (Homo sapiens, UniProt P51449). In words: LXR, FXR and VP16 reporter activity, cell-based, luciferase reporter, ROR modulator project, late-stage follow-up, panel member RORG (AID 2117).
Nuclear receptor ROR-gamma, sequence (P51449 whole entry): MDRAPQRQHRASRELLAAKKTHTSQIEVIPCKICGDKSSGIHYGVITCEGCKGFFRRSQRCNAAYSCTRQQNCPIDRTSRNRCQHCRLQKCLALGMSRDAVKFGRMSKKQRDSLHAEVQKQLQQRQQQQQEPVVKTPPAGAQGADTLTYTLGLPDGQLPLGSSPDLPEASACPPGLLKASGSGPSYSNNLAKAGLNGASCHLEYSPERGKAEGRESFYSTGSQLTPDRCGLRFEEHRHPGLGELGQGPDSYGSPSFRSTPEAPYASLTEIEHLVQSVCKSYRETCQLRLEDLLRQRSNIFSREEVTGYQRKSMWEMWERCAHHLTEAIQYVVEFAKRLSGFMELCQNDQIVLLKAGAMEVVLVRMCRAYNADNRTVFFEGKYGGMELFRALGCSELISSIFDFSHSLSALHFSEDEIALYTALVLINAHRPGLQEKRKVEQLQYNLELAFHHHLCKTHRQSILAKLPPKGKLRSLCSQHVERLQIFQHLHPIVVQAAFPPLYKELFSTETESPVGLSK
In test [11] the target is Nuclear receptor ROR-alpha (Homo sapiens, UniProt P35398). As to the kind of experiment: LXR, FXR and VP16 reporter activity, cell-based, luciferase reporter, ROR modulator project, late-stage follow-up, panel member RORA (AID 2117).
Nuclear receptor ROR-alpha, sequence (P35398 whole entry): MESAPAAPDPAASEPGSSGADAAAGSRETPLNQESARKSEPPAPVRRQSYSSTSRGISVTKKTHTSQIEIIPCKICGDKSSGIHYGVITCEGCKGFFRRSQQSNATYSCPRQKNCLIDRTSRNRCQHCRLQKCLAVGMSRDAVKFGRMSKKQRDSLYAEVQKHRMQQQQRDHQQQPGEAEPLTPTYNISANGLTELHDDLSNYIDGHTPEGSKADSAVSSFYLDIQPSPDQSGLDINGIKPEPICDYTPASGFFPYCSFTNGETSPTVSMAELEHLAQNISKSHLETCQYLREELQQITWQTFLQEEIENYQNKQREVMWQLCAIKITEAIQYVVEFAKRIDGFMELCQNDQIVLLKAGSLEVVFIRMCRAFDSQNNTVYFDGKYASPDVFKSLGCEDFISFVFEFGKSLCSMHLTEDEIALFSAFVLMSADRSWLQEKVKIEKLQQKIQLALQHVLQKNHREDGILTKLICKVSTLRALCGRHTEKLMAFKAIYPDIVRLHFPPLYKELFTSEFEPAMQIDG
In another test the test system is Candida albicans. As to the kind of experiment: Candida growth inhibition combined with fluconazole – CaCi-2 strain, Alamar Blue, dry powder, set 3, dose response (AID 488907). It counts as functional, organism-based. (In general: Resazurin is reduced to fluorescent resorufin, in cell work by metabolically active cells.)
The target of test [12] is Delta-type opioid receptor (Homo sapiens, UniProt P41143). As to the kind of experiment: Counterscreen for agonists of heterodimerization of the mu 1 (OPRM1) and delta 1 (OPRD1) opioid receptors: Luminescence-based cell-based high throughput dose response assay to identify agonists of OPRD1 homodimerization. [Related pubchem assays (depositor defined):AID504326, AID504355, AID504692, AID504904, AID504905]. It counts as functional.
Delta-type opioid receptor, sequence (P41143 whole entry): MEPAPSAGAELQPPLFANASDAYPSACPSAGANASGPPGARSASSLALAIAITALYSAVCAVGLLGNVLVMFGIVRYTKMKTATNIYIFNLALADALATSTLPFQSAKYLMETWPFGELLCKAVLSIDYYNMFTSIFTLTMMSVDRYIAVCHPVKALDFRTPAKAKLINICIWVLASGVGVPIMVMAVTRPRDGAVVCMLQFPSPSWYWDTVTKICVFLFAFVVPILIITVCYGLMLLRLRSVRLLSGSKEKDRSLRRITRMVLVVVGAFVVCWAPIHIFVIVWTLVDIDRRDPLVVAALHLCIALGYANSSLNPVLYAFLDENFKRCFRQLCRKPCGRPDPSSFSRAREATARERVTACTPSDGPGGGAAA

In another test the target is Mu-type opioid receptor (Homo sapiens, UniProt P35372). In words: Counterscreen for agonists of heterodimerization of the mu 1 (OPRM1) and delta 1 (OPRD1) opioid receptors: Luminescence-based cell-based high throughput dose response assay to identify agonists of OPRM1 homodimerization. It counts as functional.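 Further: U2OS cells expressing OPRM1 and beta-arrestin as split beta-galactosidase partners.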
Mu-type opioid receptor, sequence (P35372 whole entry): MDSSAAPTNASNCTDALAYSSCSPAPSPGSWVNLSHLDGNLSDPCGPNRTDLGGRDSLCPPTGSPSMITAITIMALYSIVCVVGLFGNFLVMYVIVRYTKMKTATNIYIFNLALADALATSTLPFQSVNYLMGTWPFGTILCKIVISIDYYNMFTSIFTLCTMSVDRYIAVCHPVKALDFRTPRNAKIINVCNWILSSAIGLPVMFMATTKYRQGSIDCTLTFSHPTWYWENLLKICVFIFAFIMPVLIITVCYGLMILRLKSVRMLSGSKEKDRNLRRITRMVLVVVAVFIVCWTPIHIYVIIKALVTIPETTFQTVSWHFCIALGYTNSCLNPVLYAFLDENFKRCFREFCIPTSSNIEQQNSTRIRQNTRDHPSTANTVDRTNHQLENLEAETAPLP
Test [13] has as its target 5-hydroxytryptamine receptor 5A (Homo sapiens, UniProt P47898). As to the kind of experiment: Counterscreen for agonists of OPRM1-OPRD1 heterodimerization: luminescence-based cell-based high throughput dose response assay to identify agonists of 5-hydroxytryptamine (serotonin) 5A receptor (HTR5A). [Related pubchem assays (depositor defined):AID504326, AID504355, AID504692, AID504904, AID504905]. It counts as functional.

T1 sequence (P0AE70 whole entry): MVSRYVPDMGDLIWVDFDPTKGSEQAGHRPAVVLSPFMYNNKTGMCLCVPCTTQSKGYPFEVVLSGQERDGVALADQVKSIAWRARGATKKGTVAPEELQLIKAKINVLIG
5-hydroxytryptamine receptor 5A, sequence (P47898 whole entry): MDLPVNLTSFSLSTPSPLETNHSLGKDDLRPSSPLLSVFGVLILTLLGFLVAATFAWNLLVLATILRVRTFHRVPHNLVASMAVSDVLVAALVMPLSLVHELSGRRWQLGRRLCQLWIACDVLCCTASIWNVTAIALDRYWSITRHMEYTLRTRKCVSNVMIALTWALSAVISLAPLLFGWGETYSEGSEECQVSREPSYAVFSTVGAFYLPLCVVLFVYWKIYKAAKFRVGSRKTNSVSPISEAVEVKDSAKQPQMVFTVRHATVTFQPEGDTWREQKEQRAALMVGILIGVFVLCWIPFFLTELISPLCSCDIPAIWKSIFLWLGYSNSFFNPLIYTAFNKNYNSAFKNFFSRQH

Take `COc1ccc(OCC(O)Cn2c(=N)n(CCN3CCCCC3)c3ccccc32)cc1` (configuration not stated): the 50% inhibitory concentration (IC50) in test [1] is 2.41 µM (active); in test [2] it was 4.23 µM (active).
On to `CCOC(=O)c1c(N=C(S)Nc2ccc(Cl)cc2)sc2c1CCN(C)C2`, for which the EC50 in test [3] and in [4] was > 99 µM (inactive) each time.
Consider `NC(=O)[C@H](Cc1ccccc1)n1c(=O)n(Cc2ccc(Br)cc2)c(=O)n(-c2ccccc2)c1=O`, for which the IC50 is > 100 µM (not active) in [5], > 100 µM (not active) in [6], > 100 µM (inactive) in test [7] and > 100 µM (inactive) in test [8].
`Cc1ccc(NC(=O)COc2ccc(N(C)C(=O)C(C)(C)C)cc2)cc1S(=O)(=O)N1CCCCC1`: the IC50 is 8.2 µM (active) in the test on Jurkat and > 80 µM (inactive) in [9]. Besides, the concentration at half-maximal activity (AC50) with INS1 was 5.61 µM (active).
Consider `O=S(=O)(Nc1ccc(C(O)(C(F)(F)F)C(F)(F)F)cc1)c1cccc2cccnc12`, for which the IC50 in [10] and in test [11] was > 20 µM (inactive) in each case.
Turning to `CC(C)C(=O)N1CCN(c2ccccn2)CC1`, in the test with Candida albicans, the concentration at half-maximal activity (AC50) was 0.961 µM (active).
Take `Cc1ccc(CSCC(=O)N/N=C/c2sccc2C)cc1`: the EC50 in [12] is > 92.5 µM (inactive); at Mu-type opioid receptor, 42.8 µM (inactive); in test [13], > 92.5 µM (inactive).

One may read the IC50 as the midpoint of a concentration-inhibition curve. Usually EC50 stands for the concentration at which the effect is half-maximal. Broadly, the AC50 is the concentration at which the activity in the assay is half-maximal.

(Values after ChEMBL document CHEMBL1201862, “PubChem BioAssay data set” (2004).)
